Results published in patent US10005774B2, “Syk inhibitors” (Gilead Sciences, Inc., priority 2013, dated 2018).
pIC50: −log10 of the molar value.

Target: Syk (Homo sapiens, UniProt P43405)
Test: High Throughput Syk Biochemical Assay (KinEASE TR-FRET)
Settings: TABLE D, 20 μM ATP, 1 μM biotinylated peptide, 0.015 nM Syk, 30 min at room temperature, read-out: IC50
Experimental: High Throughput Syk Biochemical Assay
Syk activity was measured using KinEASE (Cisbio), a time-resolved fluorescence resonance energy transfer (TR-FRET) immunoassay. In this assay. Syk-catalyzes the phosporylation of a XL665-labeled peptide substrate. Europium conjugated phospho-tyrosine specific antibody binds the resulting phosphorylated peptide. Formation of phosphorylated peptide is quantified by TR-FRET with Europium as the donor and XL665 the acceptor in a 2-step endpoint assay. In brief, test compounds serially diluted in DMSO were delivered into Corning white, low volume, non-binding 384 well plates using the Echo 550 acoustic liquid dispenser (Labcyte®). Syk enzyme and substrates were dispensed into assay plates using a Multi-Flo (Bio-Tek Instruments). […] Percent inhibition was calculated as follows: % Inhibition=100×(RatioSample−Ratio0% Inhibition)/(Ratio100% Inhibition−Ratio0% Inhibition)

pIC50 | Compound
8.80 | CC(=O)N1CCN(c2ccc(-c3cc(O[C@H](C)[C@H]4CNC(=O)C4)c4scnc4c3)nc2)CC1 (stereo in doubt) [(R)-4-((R)-1-((5-(5-(4-acetylpiperazin-1-yl)pyridin-2-yl)benzo[d]thiazol-7-yl)oxy)ethyl)pyrrolidin-2-one]
7.29 | COc1ccc(-c2cc3nc(C)n(C(F)F)c3c(O[C@H](C)[C@H]3CNC(=O)C3)n2)cc1OC [(R)-4-((R)-1-(3-(difluoromethyl)-6-(3,4-dimethoxyphenyl)-2-methyl-3H-imidazo[4,5-c]pyridin-4-yloxy)ethyl)pyrrolidin-2-one]
8.32 | COc1ccc(-c2cc(O[C@H](C)[C@H]3CNC(=O)C3)c3ccnn3c2)nc1OC [(R)-4-((R)-1-((6-(5,6-dimethoxypyridin-2-yl)pyrazolo[1,5-a]pyridin-4-yl)oxy)ethyl)pyrrolidin-2-one]

Same assay, conditions: table 'ALL NEW COMPOUNDS IN 2014', 20 μM ATP, 1 μM biotinylated peptide, 0.015 nM Syk, 30 min at room temperature, read-out: Syk IC50

pIC50 | Compound
8.28 | COc1cc(-c2cc3ncn(C4CC4)c3c(O[C@H](C)[C@H]3CNC(=O)C3)n2)ccc1OC(F)F [(R)-4-((R)-1-((3-cyclopropyl-6-(4-(difluoromethoxy)-3-methoxyphenyl)-3H-imidazo[4,5-c]pyridin-4-yl)oxy)ethyl)pyrrolidin-2-one]
8.89 | C[C@@H](Oc1nc(-c2ccc(N3CCN(S(=O)(=O)C4CC4)CC3)cc2)cc2ncn(C3CC3)c12)[C@H]1CNC(=O)C1 [(R)-4-((R)-1-((3-cyclopropyl-6-(4-(4-(cyclopropylsulfonyl)piperazin-1-yl)phenyl)-3H-imidazo[4,5-c]pyridin-4-yl)oxy)ethyl)pyrrolidin-2-one]
8.33 | C[C@@H](Oc1cc(-c2ccc(N3CCC(C4COC4)CC3)cn2)cc2ncn(C3CC3)c12)[C@H]1CNC(=O)C1 [(R)-4-((R)-1-((1-cyclopropyl-5-(5-(4-(oxetan-3-yl)piperidin-1-yl)pyridin-2-yl)-1H-benzo[d]imidazol-7-yl)oxy)ethyl)pyrrolidin-2-one]
8.76 | C[C@@H](Oc1nc(-c2ccc3c(c2)NC(=O)C3)cc2ncn(C3CC3)c12)[C@H]1CNC(=O)C1 [6-(3-cyclopropyl-4-((R)-1-((R)-5-oxopyrrolidin-3-yl)ethoxy)-3H-imidazo[4,5-c]pyridin-6-yl)indolin-2-one]
9.34 | C[C@@H](Oc1cc(-c2cnn(C(C)(C)C)c2)cc2ncn(C3CC3)c12)[C@H]1CNC(=O)C1 [(R)-4-((R)-1-((5-(1-(tert-butyl)-1H-pyrazol-4-yl)-1-cyclopropyl-1H-benzo[d]imidazol-7-yl)oxy)ethyl)pyrrolidin-2-one]
8.08 | COc1cc(-c2cc3ncn(C4CC4)c3c(O[C@H](C)[C@H]3CNC(=O)C3)n2)cnc1OC [(R)-4-((R)-1-((3-cyclopropyl-6-(5,6-dimethoxypyridin-3-yl)-3H-imidazo[4,5-c]pyridin-4-yl)oxy)ethyl)pyrrolidin-2-one]
7.76 | C[C@@H](Oc1nc(-c2cnc(N3CCN(C4COC4)CC3)c(F)c2)cc2ncn(C3CC3)c12)[C@H]1CNC(=O)C1 [(R)-4-((R)-1-((3-cyclopropyl-6-(5-fluoro-6-(4-(oxetan-3-yl)piperazin-1-yl)pyridin-3-yl)-3H-imidazo[4,5-c]pyridin-4-yl)oxy)ethyl)pyrrolidin-2-one]
8.30 | C[C@@H](Oc1cc(-c2ccc3c(cnn3C)c2)cc2ncn(C3CC3)c12)[C@H]1CNC(=O)C1 [(R)-4-((R)-1-((1-cyclopropyl-5-(1-methyl-1H-indazol-5-yl)-1H-benzo[d]imidazol-7-yl)oxy)ethyl)pyrrolidin-2-one]
7.18 | C[C@@H](Oc1cc(-c2cnccn2)cc2ncn(C3CC3)c12)[C@H]1CNC(=O)C1 [(R)-4-((R)-1-((1-cyclopropyl-5-(pyrazin-2-yl)-1H-benzo[d]imidazol-7-yl)oxy)ethyl)pyrrolidin-2-one]

Compound | pIC50
C[C@@H](Oc1nc(-c2ccc(N3CC4CC(C3)O4)cc2)cc2ncn(C3CC3)c12)[C@H]1CNC(=O)C1 [(4R)-4-((1R)-1-((6-(4-(6-oxa-3-azabicyclo[3.1.1]heptan-3-yl)phenyl)-3-cyclopropyl-3H-imidazo[4,5-c]pyridin-4-yl)oxy)ethyl)pyrrolidin-2-one] | 8.49
